Data taken from patent US8314098B2, “Pyrazolo-pyrimidine compounds” (Ajinomoto Co., Inc., priority 2008, dated 2012).
pIC50: −log10 of the molar value.

tested on: IL-12p70 (the complex of IL-12p35 and p40); assay: IL-12p70 production inhibition in macrophages derived from mouse abdomen (IFN-γ/SAC stimulation, ELISA); assay type: cell-based; conditions: Macrophage; mouse (Balb/c) abdominal macrophages, 100 ng/mL mouse IFN-γ + 0.05% SAC, overnight; TFA salts tested where prepared as such; read-out: IL-12p70-Inhibitory Activity IC50
Experimental: One milliliter each of a 3% (w/v) thioglycolate solution was intraperitoneally administered to mice (female Balb/c mice), the abdominal cells of each mouse were recovered after 5 or 6 days from the administration of the thioglycolate solution and the adhesive cells were collected and used in the exaluation procedures. To a culture medium containing such adhesive cells, there were added 100 ng/mL of mouse interferon-γ and a 0.05% (v/v) liquid containing killed cells derived from Staphylococcus aureus Cowan I strain (SAC) and a candidate compound and then the mixture was cultivated overnight. After the completion of the cultivation, the survival ratios were determined, there were quantitatively determined the quantities of IL-12p70 (the complex of IL-12p35 and p40) and IL-12p40 or TNF-α according to the ELISA assays while making use of the recovered supernatant of the culture medium and the 50% production-inhibitory concentration (IC50) was calculated for each case (see Table 1 and Tables 1-9 for IL-12p70 and TNF-α and Tables 1 to 10 for IL-12p40).

Row | SMILES | pIC50
1 | Cc1cccc(/C=N/Nc2cc(N3CCOCC3)n3nc(-c4ccco4)cc3n2)c1 [Compound 33, N-(2-furan-2-yl-7-morpholin-4-yl-pyrazolo[1,5-a]-pyrimidin-5-yl)-N′-(3-methyl-benzylidene)-hydrazine] | 7.77
2 | C(=N\Nc1cc(N2CCOCC2)n2nc(-c3ccncn3)cc2n1)/c1c[nH]c2ccccc12 [Compound 120, N-(1H-indol-3-yl-methylidene)-N-(7-morpholin-4-yl-2-pyrimidin-4-yl-pyrazolo[1,5-a]pyrimidin-5-yl)-hydrazine] | 7.40
3 | COc1ccccc1/C=N/Nc1cc(N2CCOCC2)n2nc(-c3ccccc3)cc2n1 [Compound 28, N-(2-methoxy-benzylidene)-N′-(7-morpholin-4-yl-2-phenyl-pyrazolo[1,5-a]pyrimidin-5-yl)-hydrazine] | 6.80
4 | COc1ccc(/C=N/Nc2cc(N3CCOCC3)n3nc(-c4ccncc4)cc3n2)cc1C [Compound 92, N-(4-methoxy-3-methyl-benzylidene)-N′-(7-morpholin-4-yl-2-pyridin-4-yl-pyrazolo[1,5-a]pyrimidin-5-yl)-hydrazine] | 7.36
5 | Cc1cccc(/C=N/Nc2cc(N3CCOCC3)n3nc(-c4cc(C)on4)cc3n2)c1 [Compound 98, N-(3-methyl-benzylidene)-N′-[2-(5-methylisoxazol-3-yl)-7-morpholin-4-yl-pyrazolo[1,5-a]pyrimidin-5-yl]-hydrazine] | 7.59
6 | CC(=O)N1CCC(c2cc3nc(N/N=C/c4cccc(C)c4)cc(N4CCOCC4)n3n2)CC1 [Compound 133, N-[2-(1-acetyl-piperidin-4-yl)-7-morpholin-4-yl-pyrazolo-[1,5-a]pyrimidin-5-yl]-N′-(3-methyl-benzylidene)-hydrazine] | 7.02
7 | Cc1cccc(/C=N/Nc2cc(N3CCOCC3)n3nc(C(=O)N(C)c4ccncc4)cc3n2)c1 [Compound 135, 5-[N-(3-methyl-benzylidene)-hydrazino]-7-morpholin-4-yl-pyrazolo[1,5-a]pyrimidine-2-carboxylic acid methyl-pyridin-4-yl-amide] | 6.89
8 | C(=N\Nc1cc(N2CCOCC2)n2nc(-c3ccncc3)cc2n1)/c1ccc2occc2c1 [Compound 125, N-benzofuran-5-yl-methylidene-N′-(7-morpholin-4-yl-2-pyridin-4-yl-pyrazolo[1,5-a]pyrimidin-5-yl)-hydrazine] | 7.44
9 | Cc1[nH]c2ccc(/C=N/Nc3cc(N4CCOCC4)n4nc(-c5cnccn5)cc4n3)cc2c1C [Compound 107, N-(2,3-dimethyl-1H-indol-5-yl-methylidene)-N-(7-morpholin-4-yl-2-pyrazin-2-yl-pyrazolo[1,5-a]pyrimidin-5-yl)-hydrazine] | 6.77
10 | C(=N\Nc1cc(N2CCOCC2)n2nc(-c3ccccc3)cc2n1)/c1cccc2[nH]ccc12 [Compound 72, N-(1H-indol-4-yl-methylidene)-N′-(7-morpholin-4-yl-2-phenyl-pyrazolo[1,5-a]pyrimidin-5-yl)-hydrazine] | 6.72
11 | C(=N\Nc1cc(N2CCOCC2)n2nc(-c3cccnc3)cc2n1)/c1ccc2[nH]ccc2c1 [Compound 103, N-(1H-indol-5-yl-methylidene)-N-(7-morpholin-4-yl-2-pyridin-3-yl-pyrazolo[1,5-a]pyrimidin-5-yl)-hydrazine] | 6.80
12 | COCCN(CCOC)c1ccc(-c2cc3nc(N/N=C/c4cccc(C)c4)cc(N4CCOCC4)n3n2)cc1 [Compound 32, N-{2-[4-bis-(2-methoxy-ethyl-amino)-phenyl]-7-morpholin-4-yl-pyrazolo[1,5-a]pyrimidin-5-yl}-N′-(3-methyl-benzylidene)-hydrazine] | 8.02
13 | C(=N\Nc1cc(N2CCOCC2)n2nc(-c3ccncc3)cc2n1)/c1csc2ccccc12 [Compound 109, N-benzo[b]thiophen-3-yl-methylidene-N′-(7-morpholin-4-yl-2-pyridin-4-yl-pyrazolo[1,5-a]pyrimidin-5-yl)-hydrazine] | 6.31
